Earlier results, collected in patent US20200046722A1, “METHOD AND COMPOSITION FOR TREATING EATING DISORDERS” (India Globalization Capital, Inc., priority 2017, published 2020).

How the values were obtained:
[1] = tested on: patients with cancer related anorexia-cachexia syndrome; conditions: at the dosage administered
cats = conditions: versus placebo

| SMILES | appetite versus placebo [1] | patient's quality of life versus placebo [1] | appetite in comparison with placebo (cats) | food ingested in comparison with placebo (cats) |
| --- | --- | --- | --- | --- |
| CCCCCc1cc(O)c2c(c1)OC(C)(C)[C@@H]1CCC(C)=C[C@@H]21 [Delta-9-tetrahydrocannabinol (THC), Delta-9-tetrahydrocannabinol] | no difference | no difference | – | – |
| CN1CCN2c3ncccc3Cc3ccccc3C2C1 (stereo not drawn) [mirtazapine, 1,2,3,4,10,14b-hexahydro-2-methylpyrazino[2,1-α]pyrido[2,3-c]benzazepine] | – | – | greater appetite | ingested significantly more food |
